From ChEMBL document CHEMBL1132742, “The synthesis and SAR of rhodanines as novel class C beta-lactamase inhibitors” (Bioorg Med Chem Lett, 2000)
pIC50: −log10 of the molar value. Converted amounts (≈) assume the structure as drawn. Each block holds one compound with its values, some of them ahead of it. The source made the active and inactive calls. The calls are words filed in the database; no cut-off is given here.

Assays:
Escherichia coli [1] = assay: The ratio of compound to that of piperacillin was evaluated for antimicrobial activity against Escherichia coli OC 4075 by inhibiting enzyme TEM-1 at 4 ug/mL; format: functional
Serratia marcescens [2] = assay: The ratio of compound to that of piperacillin was evaluated for antimicrobial activity against Serratia marcescens OC 4294 by inhibiting enzyme AmpC(const) at 4 ug/mL; format: functional
Pseudomonas aeruginosa [3] = assay: The ratio of compound to that of piperacillin was evaluated for antimicrobial activity against Pseudomonas aeruginosa OC 4270 by inhibiting enzyme AmpC(ind) at 4 ug/mL; format: functional
Pseudomonas aeruginosa [4] = assay: The ratio of compound to that of piperacillin was evaluated for antimicrobial activity against Pseudomonas aeruginosa OC 4290 by inhibiting enzyme AmpC(const) at 4 ug/mL; format: functional
Serratia marcescens [5] = assay: The ratio of compound to that of piperacillin was evaluated for antimicrobial activity against Serratia marcescens OC 4101 by inhibiting enzyme AmpC(ind) at 4 ug/mL; format: functional
Enterobacter cloacae [6] = assay: The ratio of compound to that of piperacillin was evaluated for antimicrobial activity against Enterobacter cloacae OC 4080 by inhibiting enzyme P99 at 4 ug/mL; format: functional
Pseudomonas aeruginosa [7] = assay: The compound was evaluated for antimicrobial activity against Pseudomonas aeruginosa OC 4270 by inhibiting enzyme AmpC(ind); format: functional
Enterobacter cloacae [8] = assay: The compound was evaluated for antimicrobial activity against Enterobacter cloacae OC 4080 by inhibiting enzyme P99; format: functional
[9] = biological target: Beta-lactamase TEM (Escherichia coli) (UniProt P62593); assay: Inhibitory activity against class A Beta-lactamase TEM isolated from Escherichia coli
Sequence of Beta-lactamase TEM (Escherichia coli) (P62593 whole entry, looked up): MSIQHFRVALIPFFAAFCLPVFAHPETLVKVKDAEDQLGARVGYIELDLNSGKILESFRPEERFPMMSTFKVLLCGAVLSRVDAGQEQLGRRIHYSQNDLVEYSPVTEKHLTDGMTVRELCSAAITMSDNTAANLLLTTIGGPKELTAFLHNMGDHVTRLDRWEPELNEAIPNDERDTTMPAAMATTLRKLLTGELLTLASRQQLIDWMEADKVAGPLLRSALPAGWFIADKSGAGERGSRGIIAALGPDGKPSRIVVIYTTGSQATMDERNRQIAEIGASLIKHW

Enterobacter cloacae [10] = assay: The compound was evaluated for antimicrobial activity against Enterobacter cloacae OC 4092 by inhibiting enzyme E2 (ind); format: functional
Pseudomonas aeruginosa [11] = assay: The compound was evaluated for antimicrobial activity against Pseudomonas aeruginosa OC 4290 by inhibiting enzyme AmpC(const); format: functional
Escherichia coli [12] = assay: The compound was evaluated for antimicrobial activity against Escherichia coli OC 4075 by inhibiting enzyme TEM-1; format: functional
Enterobacter cloacae [13] = assay: The compound was evaluated for antimicrobial activity against Enterobacter cloacae OC 4081 by inhibiting enzyme E2 (const); format: functional
Beta-lactamase = Beta-lactamase (Enterobacter cloacae, UniProt P05364); assay: Inhibitory activity against class C Beta-lactamase isolated from Enterobacter cloacae
Sequence of Beta-lactamase (P05364 whole entry): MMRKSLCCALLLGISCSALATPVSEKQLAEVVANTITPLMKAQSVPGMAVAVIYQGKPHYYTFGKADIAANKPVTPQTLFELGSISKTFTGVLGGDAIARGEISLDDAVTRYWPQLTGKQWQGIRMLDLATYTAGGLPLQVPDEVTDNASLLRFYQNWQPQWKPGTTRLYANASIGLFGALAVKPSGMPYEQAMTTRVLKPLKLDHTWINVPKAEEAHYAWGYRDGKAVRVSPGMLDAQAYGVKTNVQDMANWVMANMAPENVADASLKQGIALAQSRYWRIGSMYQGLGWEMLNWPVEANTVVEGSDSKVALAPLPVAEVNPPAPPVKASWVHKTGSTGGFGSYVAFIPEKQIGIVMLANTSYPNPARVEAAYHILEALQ

Serratia marcescens [14] = assay: The compound was evaluated for antimicrobial activity against Serratia marcescens OC 4294 by inhibiting enzyme AmpC(const); format: functional
Enterobacter cloacae [15] = assay: The ratio of compound to that of piperacillin was evaluated for antimicrobial activity against Enterobacter cloacae OC 4080 by inhibiting enzyme P99 at 4 ug/mL; not applicable; format: functional, organism-based
Pseudomonas aeruginosa [16] = assay: The ratio of compound to that of piperacillin was evaluated for antimicrobial activity against Pseudomonas aeruginosa OC 4270 by inhibiting enzyme AmpC(ind) at 1 ug/mL; format: functional
Escherichia coli [17] = assay: The ratio of compound to that of piperacillin was evaluated for antimicrobial activity against Escherichia coli OC 4075 by inhibiting enzyme TEM-1 at 4 ug/mL; not applicable; format: functional, organism-based
Enterobacter cloacae [18] = assay: The ratio of compound to that of piperacillin was evaluated for antimicrobial activity against Enterobacter cloacae OC 4080 by inhibiting enzyme P99 at 1 ug/mL; format: functional
Serratia marcescens [19] = assay: The compound was evaluated for antimicrobial activity against Serratia marcescens OC 4101 by inhibiting enzyme AmpC(ind); format: functional
Serratia marcescens [20] = assay: The ratio of compound to that of piperacillin was evaluated for antimicrobial activity against Serratia marcescens OC 4101 by inhibiting enzyme AmpC(ind) at 1 ug/mL; format: functional
Escherichia coli [21] = assay: The ratio of compound to that of piperacillin was evaluated for antimicrobial activity against Escherichia coli OC 4075 by inhibiting enzyme TEM-1 at 1 ug/mL; format: functional
Pseudomonas aeruginosa [22] = assay: The ratio of compound to that of piperacillin was evaluated for antimicrobial activity against Pseudomonas aeruginosa OC 4290 by inhibiting enzyme AmpC(const) at 1 ug/mL; format: functional
Serratia marcescens [23] = assay: The ratio of compound to that of piperacillin was evaluated for antimicrobial activity against Serratia marcescens OC 4294 by inhibiting enzyme AmpC(const) at 1 ug/mL; format: functional
[24] = Pseudomonas aeruginosa, read-out: MIC
[25] = Enterobacter cloacae, read-out: MIC
[26] = Escherichia coli, read-out: MIC

Structure (SMILES): C[C@]1(Cn2ccnn2)[C@H](C(=O)O)N2C(=O)C[C@H]2S1(=O)=O [TAZOBACTAM]
MIC (Escherichia coli [1]): 8 µg/mL | MIC (Serratia marcescens [2]): 32 µg/mL | MIC (Pseudomonas aeruginosa [3]): 8 µg/mL | MIC (Pseudomonas aeruginosa [4]): 32 µg/mL | MIC (Serratia marcescens [5]): 4 µg/mL | MIC (Enterobacter cloacae [6]): 64 µg/mL

MIC (Pseudomonas aeruginosa [7]; [24]): 32 µg/mL (≈ 120 µM) | MIC (Enterobacter cloacae [8]; [25]): 0.5 µg/mL (≈ 1.88 µM) | pIC50 [9]: < 4.30 | MIC (Enterobacter cloacae [10]): 4 µg/mL (≈ 15 µM) | MIC (Pseudomonas aeruginosa [11]; [24]): 32 µg/mL (≈ 120 µM) | MIC (Escherichia coli [12]; [26]): 1 µg/mL (≈ 3.76 µM) | MIC (Enterobacter cloacae [13]): 4 µg/mL (≈ 15 µM) | pIC50 (Beta-lactamase): < 4.30
Structure (SMILES): O=C1NC(=O)C(=CC=Cc2ccc([N+](=O)[O-])o2)S1

Structure (SMILES): O=C1NC(=S)SC1=CC=Cc1ccc([N+](=O)[O-])cc1
pIC50 [9]: 4.00 | pIC50 (Beta-lactamase): 5.38

Structure (SMILES): O=C1NC(=S)SC1=CC=Cc1ccccc1
pIC50 [9]: < 3.15 | pIC50 (Beta-lactamase): 4.12

Structure (SMILES): O=C1/C(=C/c2ccccc2)SC(=S)N1CNc1nn[nH]n1
pIC50 [9]: < 3.15 | pIC50 (Beta-lactamase): 3.36

Structure (SMILES): O=C1NC(=S)S/C1=C\c1cn(-c2ccccc2)cn1
pIC50 [9]: < 3.15 | pIC50 (Beta-lactamase): < 3.15

pIC50 [9]: 3.86 | pIC50 (Beta-lactamase): 3.61
Structure (SMILES): O=C1/C(=C/c2ccccc2)SC(=S)N1CNc1nncs1

pIC50 [9]: 3.72 | pIC50 (Beta-lactamase): < 3.15
Structure (SMILES): CC(=O)Nc1ccccc1/C=C1\SC(=S)NC1=O

pIC50 [9]: 3.36 | pIC50 (Beta-lactamase): 3.62
Structure (SMILES): CCN1C(=O)/C(=C/c2ccccc2)SC1=S

Structure (SMILES): O=C1NC(=S)S/C1=C\c1cn(-c2ccccc2)nn1
pIC50 [9]: < 3.15 | pIC50 (Beta-lactamase): 4.08

pIC50 [9]: 5.06 | pIC50 (Beta-lactamase): 5.59
Structure (SMILES): O=C1NC(=S)S/C1=C1/C(=O)Nc2ccccc21

Structure (SMILES): O=C1NC(=S)SC1=CC=Cc1ccc([N+](=O)[O-])o1
MIC (Serratia marcescens [14]): 8 µg/mL (≈ 28.3 µM) | MIC (Pseudomonas aeruginosa [7]): 32 µg/mL (≈ 113 µM) | MIC (Pseudomonas aeruginosa [7]; [24]): 32 µg/mL (≈ 113 µM) | Ratio (Serratia marcescens [2]): 8 | Ratio (Pseudomonas aeruginosa [3]): 4 | Ratio (Enterobacter cloacae [15]): inactive | Ratio (Pseudomonas aeruginosa [4]): 8 | Ratio (Serratia marcescens [5]): 2 | MIC (Enterobacter cloacae [8]): 2 µg/mL (≈ 7.08 µM) | MIC (Enterobacter cloacae [8]; [25]): 2 µg/mL (≈ 7.08 µM) | pIC50 [9]: 4.00 | Ratio (Pseudomonas aeruginosa [16]): 4 | Ratio (Escherichia coli [17]): inactive | Ratio (Enterobacter cloacae [18]): 64 | MIC (Serratia marcescens [19]): 8 µg/mL (≈ 28.3 µM) | Ratio (Serratia marcescens [20]): 2 | MIC (Enterobacter cloacae [10]): 32 µg/mL (≈ 113 µM) | MIC (Pseudomonas aeruginosa [11]): 32 µg/mL (≈ 113 µM) | MIC (Pseudomonas aeruginosa [11]; [24]): 32 µg/mL (≈ 113 µM) | Ratio (Escherichia coli [21]): 64 | Ratio (Pseudomonas aeruginosa [22]): 16 | MIC (Escherichia coli [12]): 2 µg/mL (≈ 7.08 µM) | MIC (Escherichia coli [12]; [26]): 2 µg/mL (≈ 7.08 µM) | Ratio (Serratia marcescens [23]): 32 | MIC (Enterobacter cloacae [13]): 32 µg/mL (≈ 113 µM) | pIC50 (Beta-lactamase): 6.35

pIC50 [9]: < 3.15 | pIC50 (Beta-lactamase): < 3.15
Structure (SMILES): O=C(O)CN1C(=O)/C(=C/c2ccccc2)SC1=S

Structure (SMILES): N#Cc1ccc(/C=C2\SC(=S)NC2=O)cc1
pIC50 [9]: < 3.15 | pIC50 (Beta-lactamase): 3.30

pIC50 [9]: 4.49 | pIC50 (Beta-lactamase): 5.01
Structure (SMILES): O=C1NC(=S)S/C1=C\CCc1ccccc1

Structure (SMILES): O=C1NC(=S)S/C1=C\c1ccccc1[N+](=O)[O-]
pIC50 [9]: < 3.15 | pIC50 (Beta-lactamase): 3.54

Structure (SMILES): O=C1NC(=S)S/C1=C\c1ccccc1C(=O)O
pIC50 [9]: < 3.15 | pIC50 (Beta-lactamase): < 3.15

Structure (SMILES): O=C1NC(=S)SC1=CC=Cc1ccco1
pIC50 [9]: 4.00 | pIC50 (Beta-lactamase): 4.21

pIC50 [9]: < 4.00 | pIC50 (Beta-lactamase): 5.10
Structure (SMILES): CN(C)c1ccc(C=CC=C2SC(=S)NC2=O)cc1

Structure (SMILES): O=C1NC(=S)S/C1=C\c1ccccc1O
pIC50 [9]: < 3.15 | pIC50 (Beta-lactamase): 3.47

Structure (SMILES): O=C1NC(=S)S/C1=C\c1ccc([N+](=O)[O-])cc1
pIC50 [9]: < 3.15 | pIC50 (Beta-lactamase): 4.37

MIC (Serratia marcescens [14]): > 64 µg/mL | MIC (Pseudomonas aeruginosa [7]; [24]): 8 µg/mL (≈ 15.5 µM) | MIC (Enterobacter cloacae [8]; [25]): > 64 µg/mL | MIC (Serratia marcescens [19]): 8 µg/mL (≈ 15.5 µM) | MIC (Pseudomonas aeruginosa [11]; [24]): > 64 µg/mL | MIC (Escherichia coli [12]): > 64 µg/mL
Structure (SMILES): CCN1CCN(C(=O)N[C@@H](C(=O)N[C@@H]2C(=O)N3[C@@H]2SC(C)(C)[C@@H]3C(=O)O)c2ccccc2)C(=O)C1=O [PIPERACILLIN]
